Results on ten molecules are retold here after patent US4053615A, “Phthalimidopiperidines and anti-convulsant compositions thereof” (John Wyeth & Brother Limited, priority 1972, dated 1977).

The subject of experiment [1] is tonic extensor seizures (maximal electroshock). Description: Procedure B: maximal electroshock seizures (MES). The class given is in vivo. Details: key to Activity class, Procedure B: INACTIVE: A compound is regarded as inactive in either one of the two procedures if the ED50 of the compound in the test procedure is greater than 400 mg/kg. Particulars: mice, orally; for ED50: Mus musculus, po, 1 h, supramaximal electroshock one hour later (25 mA, 0.2 sec), read-out: ED50 (against convulsions), Procedure B. As to the method:
MAXIMAL ELECTROSHOCK SEIZURES (MES)
Compounds at graded dose levels are administered orally to groups of six mice. One hour later, the animals are given a supramaximal electroshock through pinna electrodes (25 mA, 0.2 sec). Presence or absence of tonic extensor seizures as well as the number of deaths are recorded.
The percent protection against seizures is calculated. An ED50 against convulsions is calculated from probit-log dose curves.
(Protection in the maximal electroshock model is a classic sign of anticonvulsant action.)

Experiment [2] concerns clonic and tonic convulsions induced by pentylenetetrazole. Put plainly: Procedure A: anti-pentylenetetrazole activity. The class given is in vivo. Details: key to Activity class, Procedure A: INACTIVE: A compound is regarded as inactive in either one of the two procedures if the ED50 of the compound in the test procedure is greater than 400 mg/kg. Particulars: mice, p.o.; for ED50: Mus musculus, po, 1 h, challenge one hour later with pentylenetetrazole 125 mg/kg i.p., read-out: ED50 (against convulsions), Procedure A. As to the method: ANTI-PENTYLENETETRAZOLE ACTIVITY
Compounds at a number of dose levels are administered p.o. to groups of six mice (3 males and 3 females). One hour later the animals are challenged with pentylenetetrazole (125mg/kg i.p.). The incidence of clonic and tonic convulsions and deaths is observed for one-half hour. Protection against convulsions and death is determined by comparison with controls run simultaneously. An ED50 against convulsions is calculated from probit-log dose curves.

The nature of experiment [3]: Anti-inflammatory activity. The class given is in vivo. The settings on record: when tested on warm blooded animals.
For experiment [4], the system named is blood platelet aggregation. Put plainly: Inhibition of blood platelet aggregation.
The next experiment in a line: Anti-arrhythmic activity. Particulars: when tested on warm blooded animals. Type of experiment: in vivo.

The term ED50 denotes the midpoint of the dose-response relation. For the molecule `CCN1CCC(N2C(=O)c3ccccc3C2=O)C1` (stereo not shown) [1-ethyl-3-phthalimido-pyrrolidine, 1-ethyl-3-phthalimidopyrrolidine, reference compound], the ED50 in experiment [1] and in experiment [2] was more than 400 mg/kg each time. The “Activity class, Procedure B” value in experiment [1] (maximal electroshock) is reported as “INACTIVE”. Besides, the “Activity class, Procedure A” value in experiment [2] (pentylenetetrazole challenge) is recorded as “INACTIVE”.
`O=C1c2ccccc2C(=O)N1C1CCN(Cc2ccccc2)CC1` [Example 1, 1-Benzyl-4-phthalimido-piperidine]: the anti-inflammatory activity entry in experiment [3] was “Anti-inflammatory activity is shown”.
As for `O=C1c2ccccc2C(=O)N1C1CCNCC1` [Example 2, 4-Phthalimido-piperidine], the “inhibition of blood platelet aggregation” value in experiment [4] is “active as an inhibitor of blood platelet aggregation”.
In the case of `CCN1CCCC(N2C(=O)c3ccccc3C2=O)C1` (stereo not shown) [Example 3, 1-Ethyl-3-phthalimido-piperidine], the anti-arrhythmic activity entry in the experiment “Anti-arrhythmic activity” is listed as “anti-arrhythmic activity is shown”. In addition, the ED50 in experiment [1] lay within 31 to 50 mg/kg; in experiment [2], 51 to 100 mg/kg.
As to `CCN1CCCC(N2C(=O)c3ccc([N+](=O)[O-])cc3C2=O)C1` (stereo not shown) [Example 4, 1-Ethyl-3-(4-nitrophthalimido)piperidine], the anti-arrhythmic activity entry in the experiment “Anti-arrhythmic activity” is on record as “anti-arrhythmic activity is shown”. The ED50 in experiment [2] was in the range of 6 to 15 mg/kg.
For `CCN1CCCC(N2C(=O)c3ccc(N)cc3C2=O)C1` (stereo not shown) [Example 6, 3-(4-Aminophthalimido)-1-ethylpiperidine], the ED50 in experiment [2] was in the range of 6 to 15 mg/kg.
On the same count and under the same terms, under `CCCCN1CCC(N2C(=O)c3ccc([N+](=O)[O-])cc3C2=O)CC1` [Example 12, 1-n-Butyl-4-(4-nitrophthalimido)piperidine] stands 6 to 15 mg/kg; under `CCCCN1CCC(N2C(=O)c3ccc(N)cc3C2=O)CC1` [Example 13, 4-(4-Aminophthalimido)-1-n-butylpiperidine], 6 to 15 mg/kg.
Still for that read-out and setting: the same measure for `O=C1c2ccc([N+](=O)[O-])cc2C(=O)N1C1CCN(Cc2ccccc2)CC1` [Example 15, 1-Benzyl-4-(4-nitrophthalimido)piperidine]: 6 to 15 mg/kg; for `Nc1ccc2c(c1)C(=O)N(C1CCN(Cc3ccccc3)CC1)C2=O` [Example 16, 4-(4-Aminophthalimido)-1-benzylpiperidine]: 6 to 15 mg/kg.
